Data set [1] has as its system type A γ-aminobutyric acid (GABA) and benzodiazepine receptors. Conditions: pressure of around 15 atmospheres absolute; cited from earlier work.
The subject of data set [2] is Sprague-Dawley rats. As to the kind of experiment: Stress level: righting reflex when handled abdomen side up. The format is in vivo, rat. Conditions: argon 75 vol % 3 h day 1 to day 3 vs air; recorded after treatment on days 1 to 3 and on day 7; P<0.05. How it is done: (§1) In a first series of experiments, male adult Sprague-Dawley rats (n=6 per group) were treated for 3 h from day 1 to day 3 with ‘medical’ air (composed of 75 vol % nitrogen and 25 vol % oxygen) or argon at 75 vol % (with the remainder being oxygen) at a flow rate of 5 L/min in a closed chamber. None of the animals were habituated to handling with their abdomen side up. Immediately after being treated with either air or argon from day 1 to day 3, and on day 7, rats were handled by an experimenter blind of the rats' gas treatment, with their back placed in the palm of the experimenter and their abdomen side up. The rat's stress level was rated both by the experimenter and an additional observer, also blind of the rats' gas treatment, by counting the number of righting reflex of the animals during a 1-min period on a scale of 0 to 3 with 0 being a total absence of righting reflex and 3 being repetitive righting reflexes. Then, the rats' social interaction was also evaluated. The animals were placed by group of 2 in an open field measuring 90 cm×90 cm for a 10-min period, and the time spent by the animals at a distance comprised between 2 and 5 cm was recorded and taken as a behavioral marker of social interaction.

Data set [3] addresses T1, mu opioid receptor (Rattus norvegicus, UniProt P33535).
T1 construct: Membrane preparations were obtained from whole brains of rats untreated (n=4); from tissue; host or cells: rat whole brain membranes
Kind of data set: [3H]-DAMGO binding in rat whole-brain membrane protein preparations. The note with it: 100 vol % argon compared to 100 vol % nitrogen. The protocol: Membrane preparations were obtained from whole brains of rats untreated (n=4). The brains were crushed and homogenized in TRIS-HCl 50 mM buffer. After centrifugation, the bases of the vials were suspended in the same volume of TRIS-HCl buffer (×2). When the membrane preparation was obtained, the proteins were quantified to prepare in fine a solution at 1 mg/ml. Proteins were quantified using a BCA protein assay. Then, binding studies were performed as follows: solutions to allow calculating total binding were prepared by adding 385 μL of a TRIS-HCl buffer to 330 μL of proteins and 385 μL of [^3H]-DAMGO at decreasing concentrations (n=2 per dose, N=12). Solutions to allow calculating non-specific binding were prepared in the same fashion with naloxone instead of buffer. The vials containing these solutions were left open and placed in a closed chamber to allow saturating the solutions with 100 vol % nitrogen or argon. 1000 μL of each vial were placed in a 24-well plate coated with polyethylenimine. After drying, 100 μL scintillant was added to allow counting radioactivity (×3). Specific binding was obtained by subtracting non-specific binding to total binding, and Bmax, Kd, and Bmax×1/Kd (mu receptor activity) were calculated.

For data set [4], the system named is Sprague-Dawley rats. As to the kind of experiment: Social interaction in open field. In kind it is in vivo, rat. Conditions: argon 75 vol % 3 h day 1 to day 3 vs air; recorded after treatment on days 1 to 3 and on day 7; P<0.05. The protocol: as §1
Data set [5] has as its system Sprague-Dawley rats. Kind of data set: Time in central area of open field after electric shock conditioning. The note with it: argon 75 vol % 3 h day 4 to day 6 vs air; recorded on days 4 to 6 and on day 8; P<0.05. In kind it is in vivo, rat. How it is done:
In a second series of experiments, from day 1 to day 3, additional male Sprague-Dawley rats (n=6 per group) were placed for 10 min in an open field measuring 90 cm×90 cm, which central area measuring 50 cm×50 cm was equipped for delivering an electric shock to the animals that stayed more than 5 s in the area. From day 4 to day 6, the animals were treated for 3 h with medical air or argon at 75 vol % at a flow rate of 5 L/min in a closed chamber. Immediately after being treated with either air or argon from day 4 to day 6, and on day 8, rats were placed in the open field, and recorded during a 10-min period for the time that they spent in the central area whose electrical circuit was switched off.

The target in data set [6] is T2, type 2 vesicular monoamine transporter (Rattus norvegicus, UniProt Q01827).
T2 construct: Coronal brain slices (400 μm thickness) including the nucleus accumbens; from tissue; host or cells: rat nucleus accumbens brain slices
As to the kind of experiment: Carrier-mediated and KCl-evoked dopamine release in nucleus accumbens brain slices with amphetamine. In kind it is cell-based. How it is done:
Rats were killed by decapitation and the brains were carefully removed and placed in ice-cold artificial cerebrospinal fluid (aCSF). Coronal brain slices (400 μm thickness) including the nucleus accumbens (anteriority: −1.2 to +2 mm from the bregma) were cut using a tissue chopper. Before being used, brain slices (n=4 per condition) were allowed to recover at room temperature for 1 hour in oxygenated a CSF. […] Control slices were treated with saline solution and air. Carrier-mediated and depolarization-dependent (KCl: 100 mM) dopamine release in the nucleus accumbens were monitored using a polarograph and standard glass-encased nafion-precoated carbon fiber electrodes (David H. N. et al., Biol. Psych., 2006). […] Therefore, in the experiments with argon, argon was only administered after Peak 1 (P1) KCl-evoked dopamine release had returned to baseline (B2).

In data set [7] the test system is spontaneously hypertensive rats. Kind of data set: Locomotor activity in spontaneously hypertensive rats (ADHD model). In kind it is in vivo, rat. Conditions: argon 75 vol % 3 h daily day 1 to day 3 vs medical air; recorded on day 7; P<0.02. How it is done:
Male spontaneously hypertensive rats (n=7-8 per group), known to show spontaneous locomotor hyperactivity and used as a model for the attention deficit and hyperactivity disorder (ADHD), were treated daily from day 1 to day 3 for 3 h with ‘medical’ air (composed of 75 vol % nitrogen and 25 vol % oxygen) or argon at 75 vol % (with the remainder being oxygen) at a flow rate of 5 L/min in a closed chamber. On day 7, rats were habituated to the activity boxes for 1 h before being recorded for locomotor activity for 1 h 30 min as detailed previously (David et al., Neuropharmacol., 2004).

For data set [8] the following is noted: normobaric and hyperbaric pressures of 1 to 4 atmospheres absolute; cited from earlier work.

Structures are written as SMILES.

T2 sequence (Q01827 whole entry): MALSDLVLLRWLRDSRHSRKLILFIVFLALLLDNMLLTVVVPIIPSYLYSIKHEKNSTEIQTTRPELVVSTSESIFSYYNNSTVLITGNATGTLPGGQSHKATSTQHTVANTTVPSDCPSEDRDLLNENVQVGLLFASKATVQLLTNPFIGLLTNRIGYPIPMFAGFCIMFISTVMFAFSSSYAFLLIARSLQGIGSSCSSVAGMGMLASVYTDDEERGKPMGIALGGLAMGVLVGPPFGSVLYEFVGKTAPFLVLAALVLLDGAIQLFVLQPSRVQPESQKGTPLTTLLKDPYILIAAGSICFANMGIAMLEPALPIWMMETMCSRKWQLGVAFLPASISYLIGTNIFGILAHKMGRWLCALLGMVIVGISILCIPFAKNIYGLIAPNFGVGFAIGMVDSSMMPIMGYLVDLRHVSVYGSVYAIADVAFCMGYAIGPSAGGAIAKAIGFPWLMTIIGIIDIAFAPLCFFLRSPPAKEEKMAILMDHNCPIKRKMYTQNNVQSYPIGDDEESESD
T1 sequence (P33535 whole entry): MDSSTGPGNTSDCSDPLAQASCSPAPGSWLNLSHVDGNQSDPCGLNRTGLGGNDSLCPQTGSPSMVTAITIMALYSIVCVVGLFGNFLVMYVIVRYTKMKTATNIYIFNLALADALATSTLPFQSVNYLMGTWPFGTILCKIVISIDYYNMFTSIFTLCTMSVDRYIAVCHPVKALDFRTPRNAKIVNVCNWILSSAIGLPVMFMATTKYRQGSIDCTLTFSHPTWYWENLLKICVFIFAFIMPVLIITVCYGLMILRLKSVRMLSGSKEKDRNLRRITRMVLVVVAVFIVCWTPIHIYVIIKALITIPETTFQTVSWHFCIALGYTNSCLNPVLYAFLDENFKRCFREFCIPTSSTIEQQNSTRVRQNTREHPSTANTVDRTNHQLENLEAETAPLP

For the compound `[Ar]` [argon], the “action at type A GABA and benzodiazepine receptors” value in data set [1] was “acts as an agonist”. Besides, the “number of righting reflex when handled abdomen side up” value in data set [2] is on record as “reduced number of righting reflex”. Besides, the “1/Kd (affinity) of DAMGO binding” value in data set [3] is listed as “trend toward reduction”. Besides, the “decrease in mu receptor activity (Bmax×1/Kd)” value in data set [3] (P<0.05) was determined as 60%. The “decrease of Bmax (number of receptors) of DAMGO binding” value in data set [3] (membrane protein preparations) is listed as 15%. Moreover, in data set [4], the social interactions entry was “increased number of social interactions”. Moreover, the “time spent in central area of the open field” value in data set [5] is given as “penetrated the central area of the open field to a greater extent”. In data set [6] (amphetamine in the presence of air or argon, KCl 100 mM), the “effect on Peak 2 KCl-evoked dopamine release” value was “lack of effect”. Further, the “effect on amphetamine-induced reduction in Peak 3 (P3) KCl-evoked dopamine release” value in data set [6] (argon 75 vol % vs air, with amphetamine, KCl 100 mM, P<0.02) was “further potentiates the reduction”. In addition, the “effect on amphetamine-induced increase in carrier-mediated dopamine release” value in data set [6] (argon 75 vol % vs air, with amphetamine, rat nucleus accumbens slices, P<0.02) was “decreases the facilitating action of amphetamine”. The locomotor activity result in data set [7] is “lower locomotor activity”. Also, the “side effects of breathing argon” value in data set [8] is “no or minimal side effect”.

The values are drawn from patent US20150335677A1, “Argon is a mu opioid receptor antagonist” (priority 2014, published 2015).
